Results on seven molecules are retold here after ChEMBL document CHEMBL2010638, “Synthesis and evaluation of disulfide bond mimetics of amylin-(1-8) as agents to treat osteoporosis” (Bioorg Med Chem, 2012).

The structures appear in SMILES notation. Active and inactive are the calls of the source. The rule behind the calls is not given here. *1 amine or outer side, *2 acyl side, *3 side chain or, on linkers, in order; H or OH if unused. Where a SMILES comes first, the peptide text is derived from it. Bridges are numbered along the chain shown (N, C = ends). Triazole bridges read from a SMILES are 1,4-linked. [ ]: non-standard residue; d: D form. Dap(N3) = [N-]=[N+]=NC[C@H](N)C(=O)O; oXylylene = c1ccc(C[*:2])c(C[*:1])c1; pXylylene = c1cc(C[*:2])ccc1C[*:1]; Pra = C#CC[C@H](N)C(=O)O; CH2CH2 = C(C[*:2])[*:1]; X2 = O=C(CC[*:2])[*:1]; X1 = C(C[*:1])C[*:2]

For the assay, the system named is Calvarial osteoblast. Put plainly: Induction of osteoblast differentiation in rat fetal calvarial osteoblast assessed as [3H]thymidine incorporation at 10^-8 to 10^-10 after 6 hrs. It is filed as functional, cell-based.

For `C[C@H](NC(=O)[C@@H]1CSSC[C@H](NC(=O)[C@@H](N)CCCCN)C(=O)N[C@@H](CC(N)=O)C(=O)N[C@@H]([C@@H](C)O)C(=O)N[C@@H](C)C(=O)N[C@@H]([C@@H](C)O)C(=O)N1)C(N)=O` (H-KCNTATCA-NH2; disulfide 2-7), the result was Active. For the molecule `C[C@H](NC(=O)[C@@H]1CSCCSC[C@H](NC(=O)[C@@H](N)CCCCN)C(=O)N[C@@H](CC(N)=O)C(=O)N[C@@H]([C@@H](C)O)C(=O)N[C@@H](C)C(=O)N[C@@H]([C@@H](C)O)C(=O)N1)C(N)=O` (H-KCNTATCA-NH2; linker 2-7 via CH2CH2), the result was inactive. Turning to `C[C@H](NC(=O)[C@@H]1CSCCCSC[C@H](NC(=O)[C@@H](N)CCCCN)C(=O)N[C@@H](CC(N)=O)C(=O)N[C@@H]([C@@H](C)O)C(=O)N[C@@H](C)C(=O)N[C@@H]([C@@H](C)O)C(=O)N1)C(N)=O` (H-KCNTATCA-NH2; linker 2-7 via X1), the outcome was inactive. The value for `C[C@H](NC(=O)[C@@H]1CSCc2ccccc2CSC[C@H](NC(=O)[C@@H](N)CCCCN)C(=O)N[C@@H](CC(N)=O)C(=O)N[C@@H]([C@@H](C)O)C(=O)N[C@@H](C)C(=O)N[C@@H]([C@@H](C)O)C(=O)N1)C(N)=O` (H-KCNTATCA-NH2; linker 2-7 via oXylylene) was “inactive”. The same measure for `C[C@H](NC(=O)[C@@H]1CSCc2ccc(cc2)CSC[C@H](NC(=O)[C@@H](N)CCCCN)C(=O)N[C@@H](CC(N)=O)C(=O)N[C@@H]([C@@H](C)O)C(=O)N[C@@H](C)C(=O)N[C@@H]([C@@H](C)O)C(=O)N1)C(N)=O` (H-KCNTATCA-NH2; linker 2-7 via pXylylene): “Active”; for `C[C@H](NC(=O)[C@@H]1CSCCC(=O)NCCCC[C@H](NC(=O)[C@@H](N)CCCCN)C(=O)N[C@@H](CC(N)=O)C(=O)N[C@@H]([C@@H](C)O)C(=O)N[C@@H](C)C(=O)N[C@@H]([C@@H](C)O)C(=O)N1)C(N)=O` (H-KKNTATCA-NH2; linker 2-7 via X2): “inactive”. As to `C[C@H](NC(=O)[C@@H]1Cn2cc(nn2)C[C@H](NC(=O)[C@@H](N)CCCCN)C(=O)N[C@@H](CC(N)=O)C(=O)N[C@@H]([C@@H](C)O)C(=O)N[C@@H](C)C(=O)N[C@@H]([C@@H](C)O)C(=O)N1)C(N)=O` (H-K[Pra]NTAT[Dap(N3)]A-NH2; triazole 2-7), the result was inactive.
